ChEMBL document CHEMBL1201862, “PubChem BioAssay data set” (2004)
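Method: 48-hour compound exposure of cells in 96-well plates, five concentrations, linear interpolation of endpoints. The concentration for 50% growth inhibition is given as GI50.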 Calls of active or inactive are those of the source. No stated cut-off is given here; in the data, active = GI50 up to about 1.1 µM and inactive = higher.

Key:
Assay in all cases: DTP human tumour cell line panel, 48 h
[1] = test system: CAKI-1
[2] = test system: Malme-3M
[3] = test system: NCI-H23
[4] = test system: K562
[5] = test system: SK-MEL-5
[6] = test system: IGROV-1
[7] = test system: DLD-1
[8] = test system: KM12
[9] = test system: SK-OV-3
[10] = test system: HT-29
[11] = test system: SF-539
[12] = test system: U-251
[13] = test system: ACHN
[14] = test system: MOLT-4
[15] = test system: RXF 393
[16] = test system: DU-145
[17] = test system: MDA-MB-231
[18] = test system: MDA-MB-435
[19] = test system: NCI/ADR-RES

Measured: GI50

O=S(=O)(CC1=NC2C=CC=CC2N=C1)NCc1ccccc1 (stereo not drawn)
inactive: [1] > 100 µM | [2] > 100 µM | [3] > 100 µM | [4] > 100 µM | [5] 40 µM | [6] > 100 µM | [7] > 100 µM | [8] > 100 µM | [9] > 100 µM | [10] > 100 µM | [11] > 100 µM | [12] > 100 µM | [13] > 100 µM | [14] 69.5 µM | [15] 12.9 µM

c1cc2ccc1C1NCCCN1CCN1CCCNC1c1ccc(cc1)C1NCCCN1CCN1CCCNC21 (stereo not drawn)
inactive: [1] > 100 µM | [2] 44.4 µM | [3] > 100 µM | [4] 37 µM | [5] > 100 µM | [6] > 100 µM | [7] > 100 µM | [8] > 100 µM | [9] > 100 µM | [10] > 100 µM | [11] > 100 µM | [12] 54.2 µM | [13] > 100 µM | [14] > 100 µM

CC1=CC(=O)N2C(OC[C@@H]2c2ccccc2)O1 (stereo partly drawn)
inactive: [1] > 100 µM | [2] > 100 µM | [3] > 100 µM | [4] > 100 µM | [5] > 100 µM | [6] > 100 µM | [7] > 100 µM | [8] > 100 µM | [9] > 100 µM | [10] > 100 µM | [11] > 100 µM | [12] > 100 µM | [13] > 100 µM | [14] > 100 µM | [15] > 100 µM

C=CCN1C[C@H](C)N([C@@H](c2ccc(C(=O)N3CCCCC3)cc2)c2cccc(OC)c2)C[C@H]1C
inactive: [16] 80.5 µM | [1] 66.4 µM | [2] 18.5 µM | [3] 42.4 µM | [17] 30.1 µM | [4] 20.6 µM | [5] 19.1 µM | [6] 63.2 µM | [8] 36.9 µM | [9] 89.5 µM | [10] 24.7 µM | [11] 27 µM | [12] 32.1 µM | [13] 32.3 µM | [18] 35 µM | [14] 64.1 µM | [15] 48 µM | [19] 32.4 µM

COc1ccc(Nc2nnc(CCCCCCCCc3nnc(Nc4ccc(OC)cc4)o3)o2)cc1
inactive: [16] > 100 µM | [1] > 100 µM | [2] > 100 µM | [3] > 100 µM | [17] > 100 µM | [4] > 100 µM | [5] > 100 µM | [6] > 100 µM | [8] > 100 µM | [9] > 100 µM | [10] > 100 µM | [11] > 100 µM | [12] > 100 µM | [13] > 100 µM | [18] > 100 µM | [14] > 100 µM | [15] > 100 µM | [19] > 100 µM

C=C1C(=O)OC2C1C(OC(=O)/C(C)=C/C)CC1(C)C(=O)CCC(=C)C21 (stereo not drawn)
inactive: [16] 8.07 µM | [1] 4.79 µM | [2] 5.85 µM | [3] 12.8 µM | [17] 17.9 µM | [4] 3.13 µM | [5] 7.64 µM | [6] 11.3 µM | [8] 16.4 µM | [9] 25.2 µM | [10] 4.88 µM | [11] 11.3 µM | [12] 13.1 µM | [13] 2.4 µM | [18] 8.2 µM | [14] 2.77 µM | [15] 2.83 µM | [19] 6.89 µM

CC(=O)OCC1OC(OC2CC3C(C)(C)C(O)CC[C@]3(C)C3CCC45CC4(CCC5[C@@H](C)CC(O)C(O)C(C)(C)O)[C@]23C)C(O)C(O)C1O (stereo partly drawn)
inactive: [16] > 10 µM | [1] > 10 µM | [2] > 10 µM | [3] > 10 µM | [17] > 10 µM | [4] > 10 µM | [5] > 10 µM | [6] > 10 µM | [8] > 10 µM | [9] > 10 µM | [10] > 10 µM | [11] > 10 µM | [12] > 10 µM | [13] > 10 µM | [18] > 10 µM | [14] > 10 µM | [15] > 10 µM | [19] > 10 µM

O=C(/C=C/c1cccc(Br)c1)N1CCN(CCOC(c2ccccc2)c2ccccc2)CC1
inactive: [16] 37.5 µM | [1] > 100 µM | [2] 36.4 µM | [3] 42 µM | [17] > 100 µM | [4] 13 µM | [5] 16 µM | [6] 81.7 µM | [8] 32 µM | [9] > 100 µM | [10] 21.6 µM | [11] 18.4 µM | [12] 35.3 µM | [13] 57.3 µM | [18] 38.7 µM | [14] 6.53 µM | [15] 35.7 µM | [19] 35.6 µM

CCOC(=O)NC(C(=O)OCC)(N1CCN(c2cc3c(cc2F)c(=O)c(C(=O)O)cn3CC)CC1)C(F)(F)F (stereo not drawn)
inactive: [16] > 100 µM | [1] > 100 µM | [2] > 100 µM | [3] > 100 µM | [17] > 100 µM | [4] > 100 µM | [5] > 100 µM | [6] > 100 µM | [8] > 100 µM | [9] > 100 µM | [10] > 100 µM | [11] > 100 µM | [12] 58.1 µM | [13] > 100 µM | [18] 26.1 µM | [14] > 100 µM | [15] > 100 µM | [19] > 100 µM

CC1=NNC(=O)C1C1CC(c2c[nH]c3ccccc23)=NN(c2ccccc2)C1=O (stereo not drawn)
inactive: [16] > 100 µM | [1] > 100 µM | [2] > 100 µM | [3] > 100 µM | [17] > 100 µM | [4] 35 µM | [5] > 100 µM | [6] 1.62 µM | [8] > 100 µM | [9] > 100 µM | [10] > 100 µM | [11] 87.3 µM | [12] 87.5 µM | [13] > 100 µM | [18] 55.1 µM | [14] 34 µM | [15] > 100 µM | [19] 83.9 µM

CC(=O)OCC1OC(NC(=S)Nn2c(-c3ccccc3)nc3ccccc3c2=O)C(OC(C)=O)C(OC(C)=O)C1OC(C)=O (stereo not drawn)
inactive: [16] > 100 µM | [1] > 100 µM | [2] 52.8 µM | [3] > 100 µM | [17] 81.5 µM | [4] > 100 µM | [5] 35.8 µM | [6] 33.8 µM | [8] > 100 µM | [9] > 100 µM | [10] > 100 µM | [11] 37.8 µM | [12] > 100 µM | [13] > 100 µM | [18] > 100 µM | [14] 46.9 µM | [15] > 100 µM | [19] > 100 µM
